Reference: patent US20090060984A1, “ANIONIC SURFACTANTS LETHAL TO GRAM-POSITIVE BACTERIA” (priority 2007, published 2009)
Values joined by “and” are separate entries in the source; they are usually repeats but may differ in a detail not shown here. Equal values may be shown once. Read-outs that look alike come from different tables or passages of the source.

Assays:
[1] = system: Serratia marcescens; experiment: Growth on surfactant/TSA agar plates; assay type: cell-based; settings: the one Gram-negative not resistant
Procedure: This solution was then aliquoted into sterile petri dishes, approximately 25 mL per plate, and allowed to solidify. The organisms were grown in 5 mL of Trypticase Soy Broth. The sterile broth was inoculated with a single isolated colony from a stock culture and allowed to incubate in a shaking water bath at 37° C. for 8-10 hours. The estimated concentration was about 10^9 CFU/mL. Some plates were tested with a 1:100 dilution of these cultures to arrive at an approximate concentration of 10^7 CFU/mL. Then, 10 μL of each overnight culture was pipetted directly onto the surface of the surfactant/TSA plates, which were then allowed to incubate at 37° C. for 24 hours. Results were based on the presence or absence of bacterial growth on the surface of the agar.

[2] = system: B. subtilis; experiment: Sodium surfactant polyurethane coated microscope slides, surviving bacteria; settings: for CFU/mL B. subtilis: 30% sodium surfactant polyurethane coated microscope slides, two data sets
[3] = system: S. aureus; experiment: as above; settings: for CFU/mL S. aureus: 30% sodium surfactant polyurethane coated microscope slides, two data sets
[4] = system: E. coli; assay type: cell-based, Escherichia coli; settings: 24 h contact time
Procedure: Escherichia coli ATCC 11229 (Culti-loops, Remel Europe, Dartford, Kent, UK) and Pseudomonas aeruginosa ATCC 15442 (Cuti-loops, Remel Europe, Dartford, Kent, UK) were selected as model Gram-negative organisms for the challenge testing of the antimicrobial coatings. Each bacterial strain was streaked for isolated colonies on Tryptic Soy Agar (TSA) plates (Difco, Becton Dickinson, Sparks, Md., U.S.A.) and incubated at 37° C. for 12 to 18 hours. Broth cultures were prepared by first picking 1-2 isolated colonies from TSA plates and inoculating 5 mL Tryptic Soy Broth (TSB; Difco, Becton Dickinson, Sparks, Md., U.S.A.) in a 16 mm test tube. This culture was grown in a shaking water bath at 150 RPM for 8 hours at 37° C. After the eight hours, 125 μL of this culture was added to 50 mL of TSB in a side-arm Klett flask and grown for approximately 8 hours in shaking water bath (150 RPM) at 37° C. The bacterial broths were grown to an A590 of 1.2-1.5, which correlated to approximately 10^9 CFU (colony forming units)/mL. 25 mL of this broth were transferred to a sterile 30 mL Oakridge tube and centrifuged at 12,000×g for 10 minutes at 4° C. (Sorval SS34 rotor) to pelletize the bacteria. The bacterial pellet was washed once and resuspended in 25 mL of phosphate buffer solution (PBS; BBL, FTA Hemaglutination Buffer, Becton Dickinson, Sparks, Md., U.S.A.). The suspension was diluted with PBS to achieve the target range of 10^5-10^6 CFU/mL and used to inoculate the slides containing antibacterial coatings.
Xylene/methanol (5:1 by weight) is used to dissolve the silver surfactants to facilitate homogeneously mixing with the alkyd resin composition.
A minus sign (−) denotes no growth, a plus sign (+) denotes confluent growth, and a capital P (P) denotes […].
Xylene/methanol (5:1 by weight) is used to dissolve the silver surfactants to facilitate homogeneously mixing with the acrylic resin composition.
The same laboratory experimental solvent based acrylic paint described in Example 34 is used to challenge E. coli by adding various levels of the invention silver anionic surfactants as described in Example 34.
A commercially available 2K epoxy resin paint is obtained from a local paint store (Sherwin Williams High Solids Epoxy Tile Clad HS; Part A B62WC11; Part B B60VZ75, The Sherwin Williams Company) and the same silver anionic surfactants described in Example 35 are used to prepare test coatings on microscope slides containing various levels of silver ion. These surfactants are dissolved in xylene/methanol (5:1 by weight) to facilitate their quantitative addition to the coating mixture.

[5] = system: S. aureus; assay type: cell-based, Staphylococcus aureus; settings: laboratory acrylic clearcoat, 24 h contact time
Source text: A laboratory experimental solvent based acrylic paint is formulated and then used to challenge S. aureus by adding various levels of the invention silver anionic surfactants as described in Example 33. A binder is made by solution polymerization of butyl acrylate (25% w/w), methylmethacrylate (73.5% w/w), and methacrylic acid (1.5% w/w) in amylacetate using thermal initiation. This solution polymer is then used to make a 60% solids clearcoat binder in xylene/methanol (5:1 by weight). The silver anionic surfactants are dissolved in this same xylene/methanol mixture prior to addition to the clearcoat.

[6] = after 12 and 24 hours of exposure, polyurethane coated slides

Molecule: CCCCC(CC)COC(=O)CC(C(=O)OCC(CC)CCCC)S(=O)(=O)[O-].[Na+] (stereo not shown) [NaAOT, Sodium bis(2-ethylhexyl)sulfosuccinate]
- Effect on Serratia marcescens [1]: except for Serratia marcescens
- Killing of B. subtilis [2, 6]: killed all
- CFU/mL B. subtilis ([2]; exposure 12 hours): 0 CFU/mL
- CFU/mL B. subtilis ([2]; exposure 24 hours): 0 CFU/mL
- Killing of S. aureus [3, 6]: killed all
- CFU/mL S. aureus ([3]; exposure 12 hours): 0 CFU/mL
- CFU/mL S. aureus ([3]; exposure 24 hours): 0 CFU/mL

Molecule: silver linearalkanebenzene sulfonate [AgLABS]
- E. coli growth on coating ([4]; alkyd resin paint, 0.0012 weight % Ag in coating): +
- E. coli growth on coating ([4]; alkyd resin paint, 0.003 weight % Ag in coating): +
- E. coli growth on coating ([4]; alkyd resin paint, 0.006 weight % Ag in coating): +
- E. coli growth on coating ([4]; alkyd resin paint, 0.012 weight % Ag in coating): +
- E. coli growth on coating ([4]; alkyd resin paint, 0.03 weight % Ag in coating): −
- E. coli growth on coating ([4]; alkyd resin paint, 0.06 weight % Ag in coating): −
- E. coli growth on coating ([4]; alkyd resin paint, 0.12 weight % Ag in coating): −
- E. coli growth on coating ([4]; commercial 2K epoxy paint, 0.0012 weight % Ag in coating): +
- E. coli growth on coating ([4]; commercial 2K epoxy paint, 0.003 weight % Ag in coating): +
- E. coli growth on coating ([4]; commercial 2K epoxy paint, 0.006 weight % Ag in coating): +
- E. coli growth on coating ([4]; commercial 2K epoxy paint, 0.012 weight % Ag in coating): +
- E. coli growth on coating ([4]; commercial 2K epoxy paint, 0.03 weight % Ag in coating): −
- E. coli growth on coating ([4]; commercial 2K epoxy paint, 0.06 weight % Ag in coating): −
- E. coli growth on coating ([4]; commercial 2K epoxy paint, 0.12 weight % Ag in coating): −
- Silver level giving complete inhibition of growth ([4]; commercial 2K epoxy paint): 0.03 % w/w
- E. coli growth on coating ([4]; commercial solvent borne acrylate paint, 0.0012 weight % Ag in coating): +
- E. coli growth on coating ([4]; commercial solvent borne acrylate paint, 0.003 weight % Ag in coating): +
- E. coli growth on coating ([4]; commercial solvent borne acrylate paint, 0.006 weight % Ag in coating): +
- E. coli growth on coating ([4]; commercial solvent borne acrylate paint, 0.012 weight % Ag in coating): +
- E. coli growth on coating ([4]; commercial solvent borne acrylate paint, 0.06 weight % Ag in coating): −
- E. coli growth on coating ([4]; commercial solvent borne acrylate paint, 0.12 weight % Ag in coating): −
- Silver level partially effective ([4]; commercial solvent borne acrylic paint): 0.03 % Ag w/w
- Silver level with partial inhibition ([4]; laboratory solvent based acrylic paint): 0.03%
- E. coli growth on coating ([4]; laboratory solvent borne acrylate paint, 0.0012 weight % Ag in coating): +
- E. coli growth on coating ([4]; laboratory solvent borne acrylate paint, 0.003 weight % Ag in coating): +
- E. coli growth on coating ([4]; laboratory solvent borne acrylate paint, 0.006 weight % Ag in coating): +
- E. coli growth on coating ([4]; laboratory solvent borne acrylate paint, 0.012 weight % Ag in coating): +
- E. coli growth on coating ([4]; laboratory solvent borne acrylate paint, 0.06 weight % Ag in coating): −
- E. coli growth on coating ([4]; laboratory solvent borne acrylate paint, 0.12 weight % Ag in coating): −
- Silver level with partial growth [5]: 0.012 % Ag w/w and 0.006 % Ag w/w
